Laboratory results as given in PubChem BioAssay (NCI).
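Exposure lasted 48 hours, with cells grown in 96-well plates and compounds tested at five concentrations. The concentration for 50% growth inhibition is given as GI50. TGI is the concentration that stops growth completely.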

Key:
Assay in all cases: inhibition of tumour cell growth, NCI panel, 48 h
SK-MEL-2 melanoma = system: SK-MEL-2 melanoma
M14 melanoma = system: M14 melanoma
A549 NSCLC = system: A549 NSCLC
HCC-2998 colon = system: HCC-2998 colon
HL-60(TB) leukemia = system: HL-60(TB) leukemia
RPMI-8226 leukemia = system: RPMI-8226 leukemia
A498 renal = system: A498 renal
SK-OV-3 ovarian = system: SK-OV-3 ovarian
CAKI-1 renal = system: CAKI-1 renal
MCF7 breast = system: MCF7 breast

## COc1nc2c(c(O)c(C)c(=O)n2OC2OC(COC(C)=O)C(OC(C)=O)C(OC(C)=O)C2OC(C)=O)c(=O)n1C (stereo not drawn)
SK-MEL-2 melanoma
  TGI: > 100 µM
M14 melanoma
  TGI: > 100 µM
A549 NSCLC
  TGI: > 100 µM
HCC-2998 colon
  TGI: > 100 µM

## c1cnc2[nH]cc(-c3csc(-c4cn(CCCN5CCCCC5)c5ccccc45)n3)c2c1
SK-MEL-2 melanoma
  GI50: 2.04 µM
  TGI: 4.24 µM
M14 melanoma
  GI50: 1.76 µM
  TGI: 3.45 µM
HL-60(TB) leukemia
  GI50: 1.88 µM
  TGI: 3.74 µM
RPMI-8226 leukemia
  GI50: 2.08 µM
  TGI: 4.63 µM
A498 renal
  GI50: 1.83 µM
  TGI: 3.38 µM
A549 NSCLC
  GI50: 1.97 µM
  TGI: 3.63 µM
SK-OV-3 ovarian
  GI50: 1.8 µM
  TGI: 3.36 µM

## CC[P+]1(CC)CCCC1
SK-MEL-2 melanoma
  TGI: > 100 µM
M14 melanoma
  TGI: > 100 µM
RPMI-8226 leukemia
  TGI: > 100 µM
A549 NSCLC
  TGI: > 100 µM
SK-OV-3 ovarian
  TGI: > 100 µM
CAKI-1 renal
  TGI: > 100 µM
HCC-2998 colon
  TGI: > 100 µM

## CC1=C(C(=O)CC(=O)C(=O)NC2C3CC4CC(C3)CC2C4)Sc2ccccc2N1 (stereo not drawn)
SK-MEL-2 melanoma
  TGI: > 100 µM
M14 melanoma
  TGI: > 100 µM
HL-60(TB) leukemia
  TGI: > 100 µM
RPMI-8226 leukemia
  TGI: > 100 µM
A498 renal
  TGI: > 100 µM
A549 NSCLC
  TGI: > 100 µM
SK-OV-3 ovarian
  TGI: > 31.6 µM
CAKI-1 renal
  TGI: > 100 µM
HCC-2998 colon
  TGI: > 100 µM

## C[C@@]12CCCC(=O)N1[C@@H](CO)C(c1ccccc1)O2 (stereo partly drawn)
SK-MEL-2 melanoma
  TGI: > 100 µM
RPMI-8226 leukemia
  TGI: > 100 µM
A498 renal
  TGI: > 100 µM
A549 NSCLC
  TGI: > 100 µM
CAKI-1 renal
  TGI: > 100 µM

## Cc1nnc(N=Nc2c(O)[nH]c3ccccc23)n1N
SK-MEL-2 melanoma
  TGI: > 100 µM
M14 melanoma
  TGI: > 100 µM
HL-60(TB) leukemia
  TGI: > 100 µM
RPMI-8226 leukemia
  TGI: > 100 µM
A498 renal
  TGI: > 100 µM
A549 NSCLC
  TGI: > 100 µM
SK-OV-3 ovarian
  TGI: > 100 µM
CAKI-1 renal
  TGI: > 100 µM
HCC-2998 colon
  TGI: > 100 µM

## NC(=O)c1c[se]c(C2OC(COP(=O)(O)CP(=O)(O)OCC3OC(n4cnc5c(N)ncnc54)C(O)C3O)C(O)C2O)n1 (stereo not drawn)
SK-MEL-2 melanoma
  TGI: > 100 µM
M14 melanoma
  TGI: > 100 µM
HL-60(TB) leukemia
  TGI: > 100 µM
A498 renal
  TGI: > 100 µM
A549 NSCLC
  TGI: > 100 µM
SK-OV-3 ovarian
  TGI: > 100 µM
CAKI-1 renal
  TGI: > 100 µM

## COC(=O)c1cc2c3c(ccc2[nH]1)N(C(=O)c1cc2c4c(ccc2[nH]1)N(C(=O)c1cc2c5c(ccc2[nH]1)N(C(N)=O)CC5)CC4)CC3
SK-MEL-2 melanoma
  TGI: > 24.4 µM
M14 melanoma
  TGI: > 21.3 µM
HL-60(TB) leukemia
  TGI: > 70.5 µM
RPMI-8226 leukemia
  TGI: > 100 µM
A498 renal
  TGI: 4.4 µM
A549 NSCLC
  TGI: > 100 µM
SK-OV-3 ovarian
  TGI: 8.02 µM
CAKI-1 renal
  TGI: 8.95 µM
HCC-2998 colon
  TGI: > 100 µM

## COc1ccc(C2NCCc3c2[nH]c2ccccc32)cc1 (stereo not drawn)
M14 melanoma
  TGI: > 100 µM
HL-60(TB) leukemia
  TGI: > 100 µM
RPMI-8226 leukemia
  TGI: > 100 µM
A549 NSCLC
  TGI: > 100 µM
SK-OV-3 ovarian
  TGI: > 100 µM
HCC-2998 colon
  TGI: 65.1 µM

## O=C1C(c2ccccc2)=C(c2ccccc2)[C@H](c2ccccc2)[C@]1(Cc1nnn(-c2ccc([N+](=O)[O-])cc2)c1N1CCOCC1)c1ccccc1
M14 melanoma
  TGI: > 37.5 µM
HL-60(TB) leukemia
  TGI: > 37.5 µM
RPMI-8226 leukemia
  TGI: > 37.5 µM
A498 renal
  TGI: > 37.5 µM
A549 NSCLC
  TGI: > 37.5 µM
SK-OV-3 ovarian
  TGI: > 37.5 µM
CAKI-1 renal
  TGI: > 37.5 µM
HCC-2998 colon
  TGI: > 37.5 µM

## COc1ccc(CC2=NCCc3cc(OC)c(OC)cc32)cc1Br
SK-MEL-2 melanoma
  TGI: > 100 µM
HL-60(TB) leukemia
  TGI: 21.7 µM
A498 renal
  TGI: 95.1 µM
A549 NSCLC
  TGI: > 100 µM
SK-OV-3 ovarian
  TGI: > 100 µM
CAKI-1 renal
  TGI: 59.3 µM
HCC-2998 colon
  TGI: 35.6 µM

## CC(=O)[CH-]C(=O)c1ccccc1.CC(=O)[CH-]C(=O)c1ccccc1.[CH2-]CCC.[CH2-]CCC.[Sn+4]
SK-MEL-2 melanoma
  GI50: 0.555 µM
  TGI: 1.77 µM
M14 melanoma
  GI50: 1.16 µM
  TGI: 2.62 µM
HL-60(TB) leukemia
  GI50: 0.322 µM
  TGI: 1.09 µM
RPMI-8226 leukemia
  GI50: 0.22 µM
  TGI: 0.567 µM
A498 renal
  GI50: 1.66 µM
  TGI: 3.74 µM
A549 NSCLC
  GI50: 1.93 µM
  TGI: 4.13 µM
SK-OV-3 ovarian
  GI50: 2.27 µM
  TGI: 3.99 µM
CAKI-1 renal
  GI50: 0.322 µM
  TGI: 1.22 µM

## COC(=O)C1(F)C(=O)NC(=O)NC1OC (stereo not drawn)
SK-MEL-2 melanoma
  TGI: > 100 µM
HL-60(TB) leukemia
  TGI: > 100 µM
RPMI-8226 leukemia
  TGI: > 100 µM
A498 renal
  TGI: > 100 µM
A549 NSCLC
  TGI: > 100 µM
SK-OV-3 ovarian
  TGI: > 100 µM
CAKI-1 renal
  TGI: > 100 µM

## C/C(=N\n1c(N)c(C#N)c(-c2ccc(Cl)cc2)c(C#N)c1=O)c1ccncc1
SK-MEL-2 melanoma
  GI50: 27.8 µM
  TGI: > 100 µM
M14 melanoma
  GI50: > 100 µM
  TGI: > 100 µM
RPMI-8226 leukemia
  GI50: 7.96 µM
  TGI: 69.7 µM
MCF7 breast
  GI50: 5.7 µM
  TGI: 93.9 µM
A549 NSCLC
  GI50: 7.58 µM
  TGI: 65.4 µM
SK-OV-3 ovarian
  GI50: 10.1 µM
  TGI: 64.6 µM
CAKI-1 renal
  GI50: 16.7 µM
  TGI: > 100 µM
HCC-2998 colon
  GI50: > 100 µM
  TGI: > 100 µM

## CCN(CC)CCOc1ccc(/C=C2\CC3C4CC=C5C[C@@H](OC(C)=O)CC[C@]5(C)C4CC[C@]3(C)C2=O)cc1OC (stereo partly drawn)
SK-MEL-2 melanoma
  GI50: 5.1 µM
  TGI: > 100 µM
M14 melanoma
  GI50: 2.09 µM
  TGI: 4.36 µM
RPMI-8226 leukemia
  GI50: 1.71 µM
  TGI: 4.63 µM
A498 renal
  GI50: 3.01 µM
  TGI: 11.6 µM
A549 NSCLC
  GI50: 17.7 µM
  TGI: 44.9 µM
SK-OV-3 ovarian
  GI50: 29.5 µM
  TGI: 95.1 µM
CAKI-1 renal
  GI50: 0.429 µM
  TGI: 2.52 µM
HCC-2998 colon
  GI50: 3.74 µM
  TGI: 14.1 µM

## CCCCCCCCCC(=O)Oc1cccc2onc(C)c12
SK-MEL-2 melanoma
  TGI: > 100 µM
M14 melanoma
  TGI: > 100 µM
HL-60(TB) leukemia
  TGI: 56.4 µM
RPMI-8226 leukemia
  TGI: > 100 µM
A549 NSCLC
  TGI: > 100 µM
SK-OV-3 ovarian
  TGI: > 100 µM
CAKI-1 renal
  TGI: > 100 µM
HCC-2998 colon
  TGI: > 100 µM
